In patent US10323022B2, “Pyrrolidinyl urea, pyrrolidinyl thiourea and pyrrolidinyl guanidine compounds as TrkA kinase inhibitors” (Array BioPharma Inc., priority 2011, dated 2019):

Molecular target: TrkA (Homo sapiens (Human), UniProt P04629)
Assay: TrkA Omnia Assay
Format: biochemical
Settings: averaged IC50; 20 nM enzyme, 500 μM ATP, 10 μM peptide substrate
Outline: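 Continuous fluorescent kinase read-out (ex 360 nm, em 485 nm) over 70 min, with initial rates fitted to 4- or 5-parameter logistic curves for IC50. Final conditions: 500 μM ATP, 10 μM Omnia Tyr Peptide #4, 20 nM TrkA, MOPS pH 7.5 buffer with MgCl2 and Triton X-100; enzyme and compound preincubated 10 min at ambient temperature.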

Sequence of TrkA (P04629 33-796): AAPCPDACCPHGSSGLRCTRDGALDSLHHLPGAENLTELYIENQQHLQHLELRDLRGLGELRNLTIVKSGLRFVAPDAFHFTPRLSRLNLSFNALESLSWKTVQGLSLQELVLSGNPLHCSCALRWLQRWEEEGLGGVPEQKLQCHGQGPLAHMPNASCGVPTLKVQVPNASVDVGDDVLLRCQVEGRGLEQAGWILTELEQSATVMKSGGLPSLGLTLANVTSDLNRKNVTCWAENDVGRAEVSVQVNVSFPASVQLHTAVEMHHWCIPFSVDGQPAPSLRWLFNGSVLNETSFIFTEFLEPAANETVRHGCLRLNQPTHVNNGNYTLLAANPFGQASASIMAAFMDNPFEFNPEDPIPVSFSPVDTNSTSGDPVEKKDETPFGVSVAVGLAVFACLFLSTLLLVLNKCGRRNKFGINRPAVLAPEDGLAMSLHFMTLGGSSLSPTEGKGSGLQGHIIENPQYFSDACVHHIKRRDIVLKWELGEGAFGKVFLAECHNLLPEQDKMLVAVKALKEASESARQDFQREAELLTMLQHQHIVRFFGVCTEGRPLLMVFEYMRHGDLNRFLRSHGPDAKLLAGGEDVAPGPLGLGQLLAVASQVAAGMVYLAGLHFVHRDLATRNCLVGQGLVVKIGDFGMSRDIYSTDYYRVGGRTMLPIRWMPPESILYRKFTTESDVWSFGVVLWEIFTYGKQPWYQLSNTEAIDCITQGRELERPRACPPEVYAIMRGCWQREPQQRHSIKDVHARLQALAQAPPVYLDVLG

| IC50 | Structure (SMILES) |
| --- | --- |
| < 100 nM | COCCN1C[C@@H](NC(=O)Nc2c(C)c(OC[C@@H]3COC(C)(C)O3)nn2-c2ccccc2)[C@H](c2ccc(F)c(F)c2)C1 [Example 77, 1-((3S,4R)-4-(3,4-difluorophenyl)-1-(2-methoxyethyl)pyrrolidin-3-yl)-3-(3-(((R)-2,2-dimethyl-1,3-dioxolan-4-yl)methoxy)-4-methyl-1-phenyl-1H-pyrazol-5-yl)urea] |
| 1000 to 10000 nM | COCCN1C[C@@H](NC(=O)Nc2c3c(nn2-c2ccccc2)CN(C(=O)OC(C)(C)C)C3)[C@H](c2ccccc2)C1 [Example 79, tert-butyl 3-(3-((3S,4R)-1-(2-methoxyethyl)-4-phenylpyrrolidin-3-yl)ureido)-2-phenyl-4,6-dihydropyrrolo[3,4-c] pyrazole-5(2H)-carboxylate] |
| < 100 nM | COCCN1C[C@@H](NC(=O)Nc2c3c(nn2-c2ccccc2)COC3)[C@H](c2ccccc2)C1 [Example 81, 1-((3S,4R)-1-(2-methoxy-ethyl)-4-phenylpyrrolidin-3-yl)-3-(2-phenyl-4,6-dihydro-2H-furo[3,4-c]pyrazol-3-yl)urea] |
| < 100 nM | COCCN1C[C@@H](NC(=O)Nc2c3c(nn2-c2ccccc2)CSC3)[C@H](c2ccccc2)C1 [Example 82, 1-((3S,4R)-1-(2-methoxy-ethyl)-4-phenylpyrrolidin-3-yl)-3-(2-phenyl-4,6-dihydro-2H-thieno[3,4-c]pyrazol-3-yl)urea] |
| < 100 nM | COCCN1C[C@@H](NC(=O)Nc2c3c(nn2-c2ccccc2)CCC3)[C@H](c2cc(F)cc(F)c2)C1 [Example 84, 1-((3S,4R)-4-(3,5-difluoro-phenyl)-1-(2-methoxyethyl)pyrrolidin-3-yl)-3-(2-phenyl-2,4,5,6-tetrahydro-cyclopenta[c]pyrazol-3-yl)urea] |
| < 100 nM | COCCN1C[C@@H](NC(=O)Nc2cc(C(C)C)nn2-c2ccccc2)[C@H](c2cc(F)cc(F)c2)C1 [Example 85, 1-((3S,4R)-4-(3,5-difluoro-phenyl)-1-(2-methoxyethyl)pyrrolidin-3-yl)-3-(3-isopropyl-1-phenyl-1H-pyrazol-5-yl)urea] |
| < 100 nM | COCCN1C[C@@H](NC(=O)Nc2c3c(nn2-c2ccccc2)COC3)[C@H](c2ccc(F)c(F)c2)C1 [Example 90, 1-((3S,4R)-4-(3,4-difluoro-phenyl)-1-(2-methoxyethyl)pyrrolidin-3-yl)-3-(2-phenyl-4,6-dihydro-2H-furo[3,4-c]pyrazol-3-yl) urea] |
| < 100 nM | COCCN1C[C@@H](NC(=O)Nc2cc(-c3ccncc3)nn2C)[C@H](c2ccccc2)C1 [Example 96, 1-((3S,4R)-1-(2-methoxy-ethyl)-4-phenylpyrrolidin-3-yl)-3-(1-methyl-3-(pyridin-4-yl)-1H-pyrazol-5-yl)urea] |
| < 100 nM | COCCN1C[C@@H](NC(=O)Nc2cc(-c3ccncc3)nn2C)[C@H](c2ccc(F)c(F)c2)C1 [Example 97, 1-((3S,4R)-4-(3,4-difluorophenyl)-1-(2-methoxyethyl)pyrrolidin-3-yl)-3-(1-methyl-3-(pyridin-4-yl)-1H-pyrazol-5-yl)urea] |
| < 100 nM | COCCN1C[C@@H](NC(=O)Nc2cc(-c3cccc(C)c3)nn2C)[C@H](c2ccc(F)c(F)c2)C1 [Example 103, 1-((3S,4R)-4-(3,4-difluorophenyl)-1-(2-methoxyethyl)pyrrolidin-3-yl)-3-(1-methyl-3-m-tolyl-1H-pyrazol-5-yl) urea] |
| 100 to 1000 nM | COCCN1C[C@@H](NC(=O)Nc2cc(-c3ccccc3OC)nn2C)[C@H](c2ccc(F)c(F)c2)C1 [Example 106, 1-((3S,4R)-4-(3,4-difluorophenyl)-1-(2-methoxyethyl)pyrrolidin-3-yl)-3-(3-(2-methoxy-phenyl)-1-methyl-1H-pyrazol-5-yl)urea] |
| < 100 nM | COCCN1C[C@@H](NC(=O)Nc2cc(-c3ccc(F)cc3)nn2C)[C@H](c2ccccc2)C1 [Example 107, 1-(3-(4-fluorophenyl)-1-methyl-1H-pyrazol-5-yl)-3-((3S,4R)-1-(2-methoxy-ethyl)-4-phenylpyrrolidin-3-yl)urea] |
| < 100 nM | COCCN1C[C@@H](NC(=O)Nc2cc(-c3ccc(OC)cc3)nn2C)[C@H](c2ccccc2)C1 [Example 108, 1-((3S,4R)-1-(2-methoxy-ethyl)-4-phenylpyrrolidin-3-yl)-3-(3-(4-methoxy-phenyl)-1-methyl-1H-pyrazol-5-yl)urea] |

The next lines start with the compound.

| Structure (SMILES) | IC50 |
| --- | --- |
| COCCN1C[C@@H](NC(=O)Nc2c(C)c(C(C)C)nn2-c2ccccc2)[C@H](c2ccccc2)C1 [Example 80, 1-(3-isopropyl-4-methyl-1-phenyl-1H-pyrazol-5-yl)-3-((3S,4R)-1-(2-methoxy-ethyl)-4-phenylpyrrolidin-3-yl)urea] | < 100 nM |
| COCCN1C[C@@H](NC(=O)Nc2c(C)c(C)nn2-c2ccccc2)[C@H](c2cc(F)cc(F)c2)C1 [Example 83, 1-((3S,4R)-4-(3,5-difluoro-phenyl)-1-(2-methoxyethyl)pyrrolidin-3-yl)-3-(3,4-dimethyl-1-phenyl-1H-pyrazol-5-yl)urea] | < 100 nM |
| COCCN1C[C@@H](NC(=O)Nc2cc(C)nn2-c2ccccc2)[C@H](c2cc(F)cc(F)c2)C1 [Example 86, 1-((3S,4R)-4-(3,5-difluoro-phenyl)-1-(2-methoxyethyl)pyrrolidin-3-yl)-3-(3-methyl-1-phenyl-1H-pyrazol-5-yl)urea] | < 100 nM |
| COCCN1C[C@@H](NC(=O)Nc2c3c(nn2-c2ccccc2)COC3)[C@H](c2cc(F)cc(F)c2)C1 [Example 88, 1-((3S,4R)-4-(3,5-difluoro-phenyl)-1-(2-methoxyethyl)pyrrolidin-3-yl)-3-(2-phenyl-4,6-dihydro-2H-furo[3,4-c]pyrazol-3-yl) urea] | < 100 nM |
| COCCN1C[C@@H](NC(=O)Nc2c3c(nn2-c2ccccc2)CSC3)[C@H](c2cc(F)cc(F)c2)C1 [Example 89, 1-((3S,4R)-4-(3,5-difluoro-phenyl)-1-(2-methoxyethyl)pyrrolidin-3-yl)-3-(2-phenyl-4,6-dihydro-2H-thieno[3,4-c]pyrazol-3-yl) urea] | < 100 nM |
| COCCN1C[C@@H](NC(=O)Nc2c3c(nn2-c2ccccc2)CSC3)[C@H](c2ccc(F)c(F)c2)C1 [Example 91, 1-((3S,4R)-4-(3,4-difluoro-phenyl)-1-(2-methoxyethyl)pyrrolidin-3-yl)-3-(2-phenyl-4,6-dihydro-2H-thieno[3,4-c]pyrazol-3-yl) urea] | < 100 nM |
| COCCN1C[C@@H](NC(=O)Nc2c(C)c(C)nn2-c2ccccc2)[C@H](c2ccc(F)c(F)c2)C1 [Example 92, 1-((3S,4R)-4-(3,4-difluoro-phenyl)-1-(2-methoxyethyl)pyrrolidin-3-yl)-3-(3,4-dimethyl-1-phenyl-1H-pyrazol-5-yl)urea] | < 100 nM |
| COCCN1C[C@@H](NC(=O)Nc2cc(-c3ccccc3)nn2C)[C@H](c2ccc(F)c(F)c2)C1 [Example 93, 1-((3S,4R)-4-(3,4-difluoro-phenyl)-1-(2-methoxyethyl)pyrrolidin-3-yl)-3-(1-methyl-3-phenyl-1H-pyrazol-5-yl)urea] | < 100 nM |
| COCCN1C[C@@H](NC(=O)Nc2cc(C(C)(C)CO)nn2-c2ccccc2)[C@H](c2ccccc2)C1 [Example 94, 1-(3-(1-hydroxy-2-methyl-propan-2-yl)-1-phenyl-1H-pyrazol-5-yl)-3-((3S,4R)-1-(2-methoxyethyl)-4-phenylpyrrolidin-3-yl)urea] | 100 to 1000 nM |
| COCCN1C[C@@H](NC(=O)Nc2c3c(nn2-c2ccccc2)C[S+]([O-])C3)[C@H](c2ccccc2)C1 (stereo partly drawn) [Example 95, 1-((3S,4R)-1-(2-methoxy-ethyl)-4-phenylpyrrolidin-3-yl)-3-(5-oxido-2-phenyl-4,6-dihydro-2H-thieno [3,4-c]pyrazol-3-yl)urea] | < 100 nM |
| COCCN1C[C@@H](NC(=O)Nc2cc(-c3ccccc3)nn2C)[C@H](c2cc(F)cc(F)c2)C1 [Example 98, 1-((3S,4R)-4-(3,5-difluorophenyl)-1-(2-methoxyethyl)pyrrolidin-3-yl)-3-(1-methyl-3-phenyl-1H-pyrazol-5-yl) urea] | < 100 nM |
| COCCN1C[C@@H](NC(=O)Nc2cc(-c3cccs3)nn2C)[C@H](c2cc(F)cc(F)c2)C1 [Example 99, 1-((3S,4R)-4-(3,5-difluorophenyl)-1-(2-methoxyethyl)pyrrolidin-3-yl)-3-(1-methyl-3-(thiophen-2-yl)-1H-pyrazol-5-yl)urea] | < 100 nM |
| COCCN1C[C@@H](NC(=O)Nc2cc(COC)nn2-c2ccccc2)[C@H](c2ccccc2)C1 [Example 100, 1-((3S,4R)-1-(2-methoxy-ethyl)-4-phenylpyrrolidin-3-yl)-3-(3-(methoxy-methyl)-1-phenyl-1H-pyrazol-5-yl)urea] | 100 to 1000 nM |
| COCCN1C[C@@H](NC(=O)Nc2c(C)c(COC)nn2-c2ccccc2)[C@H](c2ccccc2)C1 [Example 101, 1-((3S,4R)-1-(2-methoxy-ethyl)-4-phenylpyrrolidin-3-yl)-3-(3-(methoxy-methyl)-4-methyl-1-phenyl-1H-pyrazol-5-yl) urea] | < 100 nM |
| COCCN1C[C@@H](NC(=O)Nc2cc(-c3ccc(C)cc3)nn2C)[C@H](c2ccc(F)c(F)c2)C1 [Example 102, 1-((3S,4R)-4-(3,4-difluorophenyl)-1-(2-methoxyethyl)pyrrolidin-3-yl)-3-(1-methyl-3-p-tolyl-1H-pyrazol-5-yl)urea] | < 100 nM |
| COCCN1C[C@@H](NC(=O)Nc2cc(-c3ccccc3C)nn2C)[C@H](c2ccc(F)c(F)c2)C1 [Example 104, 1-((3S,4R)-4-(3,4-difluorophenyl)-1-(2-methoxyethyl)pyrrolidin-3-yl)-3-(1-methyl-3-o-tolyl-1H-pyrazol-5-yl) urea] | < 100 nM |
| COCCN1C[C@@H](NC(=O)Nc2cc(-c3cccc(OC)c3)nn2C)[C@H](c2ccc(F)c(F)c2)C1 [Example 105, 1-((3S,4R)-4-(3,4-difluorophenyl)-1-(2-methoxyethyl)pyrrolidin-3-yl)-3-(3-(3-methoxy-phenyl)-1-methyl-1H-pyrazol-5-yl)urea] | < 100 nM |
